Measured values: patent publication US20100261658A1, “PEPTIDE FOR ACTIVATING AQUAPORIN SYNTHESIS” (priority 2007, published 2010)
Peptide text beside a SMILES is read from it.

Tested on: aquaporin 3
Assay: Expression of aquaporin 3 by immunofluorescence in samples of skin ex vivo
Assay type: cell-based, human
Details: 1% solution of a mother solution at 50 ppm applied topically, 24 hours or 48 hours; in particular upper layers of the epidermis; vs non-treated control
Method: The aim of this study is to determine the influence of the peptide SEQ ID no 5 on the expression of aquaporin 3 in samples of skin ex vivo.
Protocol: Samples of human skin are cultured at the air/liquid interface. A 1% solution of a mother solution at 50 ppm of peptide SEQ ID no 4 is applied topically, then the samples are incubated for 24 hours or 48 hours.
These skin samples are then fixed with formaldehyde then enclosed in paraffin. Sections of 2 to 3 μm are then realized. The immunolabeling is carried out after different stages of washing and incubation of these sections. The immunolabeling is carried out by means of a specific polyclonal antibody of aquaporin 3 (anti-aquaporin 3 (C-18): goat polyclonal, sc-9885, Santa Cruz, dilution 1/100th), then a secondary antibody, coupled to a fluorescent marker (alexa-fluor 488 donkey anti-goat Ig G, Molecular Probes, dilution 1/1000th). The skin sections are then examined by epifluorescence microscope (Nikon Eclipse E600 microscope).

`C[C@H](NC(=O)[C@@H]1CCCN1C(=O)[C@@H](N)CC(N)=O)C(=O)N[C@@H](CCCNC(=N)N)C(=O)O` [SEQ ID no 4, Asn-Pro-Ala-Arg] (H-NPAR-OH; N-terminus and C-terminus assumed) was tested, and the “aquaporin 3 immunofluorescence” value was “stronger fluorescence”.
